Experiments:
Test in all cases: Drug affinity chromatography with c-ponatinib and LC-MS/MS (ponatinib interactome)
Assay type in all cases: binding
[1] = target: T1, proteins of U2OS cell lysate (Homo sapiens, UniProt O14974); conditions: PPP1R12A, Protein phosphatase 1 regulatory subunit 12A
T1 construct: Proteins enriched by c-ponatinib from U2OS cell lysate; endogenous in cells; host or cells: U2OS cell lysate
Outline: (§1)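 Proteins were identified by nano-UPLC–MS/MS after elution with formic acid and trypsin digestion. They were captured from U2OS lysate (2 mg protein per pulldown, NP-40 buffer) on amine-coupled NHS beads during a 2 h incubation at 4 °C.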

[2] = target: T2, proteins of U2OS cell lysate (Homo sapiens, UniProt O14976); conditions: GAK, Cyclin-G-associated kinase
T2 construct: Proteins enriched by c-ponatinib from U2OS cell lysate; endogenous in cells; host or cells: U2OS cell lysate
Outline: as §1

[3] = target: T3, proteins of U2OS cell lysate (Homo sapiens, UniProt O95347); conditions: SMC2, Structural maintenance of chromosomes protein 2
T3 construct: Proteins enriched by c-ponatinib from U2OS cell lysate; endogenous in cells; host or cells: U2OS cell lysate
T3 sequence (O95347 whole entry): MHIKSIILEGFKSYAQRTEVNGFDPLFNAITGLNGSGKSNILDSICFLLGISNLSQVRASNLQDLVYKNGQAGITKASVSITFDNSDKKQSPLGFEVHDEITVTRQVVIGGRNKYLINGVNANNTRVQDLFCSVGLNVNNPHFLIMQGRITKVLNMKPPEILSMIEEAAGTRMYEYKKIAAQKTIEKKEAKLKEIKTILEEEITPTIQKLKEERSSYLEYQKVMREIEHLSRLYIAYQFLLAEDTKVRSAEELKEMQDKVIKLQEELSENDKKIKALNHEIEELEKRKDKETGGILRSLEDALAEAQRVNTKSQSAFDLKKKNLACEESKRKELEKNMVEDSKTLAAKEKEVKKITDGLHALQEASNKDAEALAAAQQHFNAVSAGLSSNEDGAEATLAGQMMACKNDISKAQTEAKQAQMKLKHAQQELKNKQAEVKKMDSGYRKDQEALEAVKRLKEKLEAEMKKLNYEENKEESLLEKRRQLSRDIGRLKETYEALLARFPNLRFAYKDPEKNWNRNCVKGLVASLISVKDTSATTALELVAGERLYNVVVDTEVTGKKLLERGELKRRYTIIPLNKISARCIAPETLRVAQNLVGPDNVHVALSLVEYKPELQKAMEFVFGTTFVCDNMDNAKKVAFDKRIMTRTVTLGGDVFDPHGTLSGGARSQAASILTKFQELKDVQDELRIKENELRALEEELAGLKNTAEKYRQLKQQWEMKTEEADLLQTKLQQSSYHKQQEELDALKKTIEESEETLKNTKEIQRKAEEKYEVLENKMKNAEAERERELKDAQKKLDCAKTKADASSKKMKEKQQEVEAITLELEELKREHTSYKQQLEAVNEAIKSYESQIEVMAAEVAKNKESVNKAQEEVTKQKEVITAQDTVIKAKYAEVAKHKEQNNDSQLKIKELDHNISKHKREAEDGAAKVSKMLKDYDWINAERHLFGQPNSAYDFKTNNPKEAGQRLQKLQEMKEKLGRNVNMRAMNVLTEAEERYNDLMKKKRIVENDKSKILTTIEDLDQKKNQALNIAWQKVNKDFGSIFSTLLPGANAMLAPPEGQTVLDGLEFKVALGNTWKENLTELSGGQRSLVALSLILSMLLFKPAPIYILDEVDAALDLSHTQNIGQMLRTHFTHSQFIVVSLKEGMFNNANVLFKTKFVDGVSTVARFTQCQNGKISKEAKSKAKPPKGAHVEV
Outline: as §1

[4] = target: T4, proteins of U2OS cell lysate (Homo sapiens, UniProt P00387); conditions: CYB5R3, NADH-cytochrome b5 reductase 3
T4 construct: Proteins enriched by c-ponatinib from U2OS cell lysate; endogenous in cells; host or cells: U2OS cell lysate
Outline: as §1

[5] = target: T5, proteins of U2OS cell lysate (Homo sapiens, UniProt P11021); conditions: HSPA5, 78 kDa glucose-regulated protein
T5 construct: Proteins enriched by c-ponatinib from U2OS cell lysate; endogenous in cells; host or cells: U2OS cell lysate
T5 sequence (P11021 19-654): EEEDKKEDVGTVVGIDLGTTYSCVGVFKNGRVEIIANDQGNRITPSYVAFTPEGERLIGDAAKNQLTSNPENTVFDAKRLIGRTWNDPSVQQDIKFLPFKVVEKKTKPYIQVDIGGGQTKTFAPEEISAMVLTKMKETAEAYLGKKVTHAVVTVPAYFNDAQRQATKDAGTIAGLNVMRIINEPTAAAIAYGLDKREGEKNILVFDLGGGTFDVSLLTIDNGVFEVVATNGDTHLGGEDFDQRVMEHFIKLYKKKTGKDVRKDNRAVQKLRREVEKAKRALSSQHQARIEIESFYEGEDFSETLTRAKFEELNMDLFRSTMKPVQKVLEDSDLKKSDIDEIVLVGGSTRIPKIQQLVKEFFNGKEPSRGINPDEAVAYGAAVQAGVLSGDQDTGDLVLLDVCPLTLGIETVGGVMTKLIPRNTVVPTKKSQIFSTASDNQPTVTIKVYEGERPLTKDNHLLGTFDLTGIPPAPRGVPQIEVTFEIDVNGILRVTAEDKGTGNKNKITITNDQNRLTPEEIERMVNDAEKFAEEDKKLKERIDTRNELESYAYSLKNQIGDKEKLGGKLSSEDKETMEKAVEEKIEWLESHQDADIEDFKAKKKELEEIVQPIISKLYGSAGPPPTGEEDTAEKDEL
Outline: as §1

[6] = target: T6, proteins of U2OS cell lysate (Homo sapiens, UniProt P28066); conditions: PSMA5, Proteasome subunit alpha type-5
T6 construct: Proteins enriched by c-ponatinib from U2OS cell lysate; endogenous in cells; host or cells: U2OS cell lysate
T6 sequence (P28066 whole entry): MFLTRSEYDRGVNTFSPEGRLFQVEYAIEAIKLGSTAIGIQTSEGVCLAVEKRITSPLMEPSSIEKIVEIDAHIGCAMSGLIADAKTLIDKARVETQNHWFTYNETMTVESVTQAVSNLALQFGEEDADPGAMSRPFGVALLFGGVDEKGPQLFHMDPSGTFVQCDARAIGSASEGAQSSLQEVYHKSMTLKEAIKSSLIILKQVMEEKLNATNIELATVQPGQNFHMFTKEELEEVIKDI
Outline: as §1

[7] = target: T7, proteins of U2OS cell lysate (Homo sapiens, UniProt P35659); conditions: DEK, Protein DEK
T7 construct: Proteins enriched by c-ponatinib from U2OS cell lysate; endogenous in cells; host or cells: U2OS cell lysate
T7 sequence (P35659 whole entry): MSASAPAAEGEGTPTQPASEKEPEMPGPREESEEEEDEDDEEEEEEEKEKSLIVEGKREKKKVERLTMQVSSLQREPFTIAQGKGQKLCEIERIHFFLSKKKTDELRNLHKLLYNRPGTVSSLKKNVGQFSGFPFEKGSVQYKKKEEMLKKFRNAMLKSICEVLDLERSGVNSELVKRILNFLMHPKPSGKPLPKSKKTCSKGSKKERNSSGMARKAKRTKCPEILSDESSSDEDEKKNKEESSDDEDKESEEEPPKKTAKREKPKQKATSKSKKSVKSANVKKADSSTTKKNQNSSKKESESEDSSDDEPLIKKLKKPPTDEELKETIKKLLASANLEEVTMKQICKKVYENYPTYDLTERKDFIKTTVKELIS
Outline: as §1

[8] = target: T8, proteins of U2OS cell lysate (Homo sapiens, UniProt P38646); conditions: HSPA9, Stress-70 protein, mitochondrial
T8 construct: Proteins enriched by c-ponatinib from U2OS cell lysate; endogenous in cells; host or cells: U2OS cell lysate
T8 sequence (P38646 47-679): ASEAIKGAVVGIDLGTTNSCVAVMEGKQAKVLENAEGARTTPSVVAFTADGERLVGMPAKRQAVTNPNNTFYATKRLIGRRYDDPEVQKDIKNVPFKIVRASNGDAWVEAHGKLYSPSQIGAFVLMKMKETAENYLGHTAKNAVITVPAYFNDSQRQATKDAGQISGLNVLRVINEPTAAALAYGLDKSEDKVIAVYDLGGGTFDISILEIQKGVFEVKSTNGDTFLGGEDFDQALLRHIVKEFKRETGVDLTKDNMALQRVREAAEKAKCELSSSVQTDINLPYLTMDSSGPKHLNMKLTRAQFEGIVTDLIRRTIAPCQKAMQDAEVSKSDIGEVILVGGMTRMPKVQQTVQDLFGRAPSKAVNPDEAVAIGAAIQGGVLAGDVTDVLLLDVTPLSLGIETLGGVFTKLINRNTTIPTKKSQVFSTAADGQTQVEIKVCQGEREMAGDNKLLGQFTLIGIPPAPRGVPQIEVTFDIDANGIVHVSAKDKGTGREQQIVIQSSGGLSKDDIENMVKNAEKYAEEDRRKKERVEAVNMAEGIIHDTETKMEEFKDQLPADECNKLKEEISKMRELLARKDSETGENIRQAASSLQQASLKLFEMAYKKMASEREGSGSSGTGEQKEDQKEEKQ
Outline: as §1

[9] = target: T9, proteins of U2OS cell lysate (Homo sapiens, UniProt P49336); conditions: CDK8, Cyclin-dependent kinase 8
T9 construct: Proteins enriched by c-ponatinib from U2OS cell lysate; endogenous in cells; host or cells: U2OS cell lysate
T9 sequence (P49336 whole entry): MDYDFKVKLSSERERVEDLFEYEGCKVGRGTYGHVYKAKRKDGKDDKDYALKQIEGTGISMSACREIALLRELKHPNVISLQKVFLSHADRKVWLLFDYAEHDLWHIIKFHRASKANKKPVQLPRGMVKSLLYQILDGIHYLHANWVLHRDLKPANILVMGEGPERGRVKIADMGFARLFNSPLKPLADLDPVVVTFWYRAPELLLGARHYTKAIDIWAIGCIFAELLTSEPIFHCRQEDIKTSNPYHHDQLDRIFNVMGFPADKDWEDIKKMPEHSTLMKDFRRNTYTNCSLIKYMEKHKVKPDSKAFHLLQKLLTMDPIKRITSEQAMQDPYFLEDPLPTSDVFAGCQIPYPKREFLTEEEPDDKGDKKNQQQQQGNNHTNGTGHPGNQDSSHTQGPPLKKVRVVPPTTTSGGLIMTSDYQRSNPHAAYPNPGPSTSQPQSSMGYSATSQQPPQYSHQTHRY
Outline: as §1

[10] = target: T10, proteins of U2OS cell lysate (Homo sapiens, UniProt P51610); conditions: HCFC1, Host cell factor 1
T10 construct: Proteins enriched by c-ponatinib from U2OS cell lysate; endogenous in cells; host or cells: U2OS cell lysate
Outline: as §1

[11] = target: T11, proteins of U2OS cell lysate (Homo sapiens, UniProt P55036); conditions: PSMD4, 26S proteasome non-ATPase regulatory subunit 4
T11 construct: Proteins enriched by c-ponatinib from U2OS cell lysate; endogenous in cells; host or cells: U2OS cell lysate
Outline: as §1

[12] = target: T12, proteins of U2OS cell lysate (Homo sapiens, UniProt P55072); conditions: VCP, Transitional endoplasmic reticulum ATPase
T12 construct: Proteins enriched by c-ponatinib from U2OS cell lysate; endogenous in cells; host or cells: U2OS cell lysate
Outline: as §1

[13] = target: T13, proteins of U2OS cell lysate (Homo sapiens, UniProt P62081); conditions: RPS7, 40S ribosomal protein S7
T13 construct: Proteins enriched by c-ponatinib from U2OS cell lysate; endogenous in cells; host or cells: U2OS cell lysate
Outline: as §1

[14] = target: T14, proteins of U2OS cell lysate (Homo sapiens, UniProt Q00536); conditions: CDK16, Cyclin-dependent kinase 16
T14 construct: Proteins enriched by c-ponatinib from U2OS cell lysate; endogenous in cells; host or cells: U2OS cell lysate
Outline: as §1

[15] = target: T15, proteins of U2OS cell lysate (Homo sapiens, UniProt Q12851); conditions: MAP4K2, Mitogen-activated protein kinase kinase kinase kinase 2
T15 construct: Proteins enriched by c-ponatinib from U2OS cell lysate; endogenous in cells; host or cells: U2OS cell lysate
T15 sequence (Q12851 whole entry): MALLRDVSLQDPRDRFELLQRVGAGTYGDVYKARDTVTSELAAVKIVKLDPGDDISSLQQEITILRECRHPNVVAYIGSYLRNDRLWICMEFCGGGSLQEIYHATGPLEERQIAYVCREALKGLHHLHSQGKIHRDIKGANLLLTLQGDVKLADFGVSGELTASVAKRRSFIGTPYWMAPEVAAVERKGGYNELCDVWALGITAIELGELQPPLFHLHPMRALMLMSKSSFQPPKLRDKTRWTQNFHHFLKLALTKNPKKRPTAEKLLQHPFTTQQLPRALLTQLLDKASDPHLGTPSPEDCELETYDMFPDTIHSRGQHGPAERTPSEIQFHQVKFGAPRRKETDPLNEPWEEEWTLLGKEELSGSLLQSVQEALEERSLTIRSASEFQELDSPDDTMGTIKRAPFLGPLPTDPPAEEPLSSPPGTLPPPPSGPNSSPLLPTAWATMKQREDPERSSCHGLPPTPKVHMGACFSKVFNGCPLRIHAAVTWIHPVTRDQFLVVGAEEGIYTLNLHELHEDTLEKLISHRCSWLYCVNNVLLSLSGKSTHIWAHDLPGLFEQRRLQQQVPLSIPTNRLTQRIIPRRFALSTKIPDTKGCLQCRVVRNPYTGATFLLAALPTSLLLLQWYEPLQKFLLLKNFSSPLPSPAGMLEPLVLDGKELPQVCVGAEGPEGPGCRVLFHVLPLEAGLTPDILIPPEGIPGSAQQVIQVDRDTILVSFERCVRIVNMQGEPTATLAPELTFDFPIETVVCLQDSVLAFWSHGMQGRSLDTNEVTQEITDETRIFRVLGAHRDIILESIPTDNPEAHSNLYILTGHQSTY
Outline: as §1

[16] = target: T16, proteins of U2OS cell lysate (Homo sapiens, UniProt Q13813); conditions: SPTAN1, Spectrin alpha chain, non-erythrocytic 1
T16 construct: Proteins enriched by c-ponatinib from U2OS cell lysate; endogenous in cells; host or cells: U2OS cell lysate
Outline: as §1

[17] = target: T17, proteins of U2OS cell lysate (Homo sapiens, UniProt Q6PHR2); conditions: ULK3, Serine/threonine-protein kinase ULK3
T17 construct: Proteins enriched by c-ponatinib from U2OS cell lysate; endogenous in cells; host or cells: U2OS cell lysate
Outline: as §1

[18] = target: T18, proteins of U2OS cell lysate (Homo sapiens, UniProt Q96RR4); conditions: CAMKK2, Calcium/calmodulin-dependent protein kinase kinase 2
T18 construct: Proteins enriched by c-ponatinib from U2OS cell lysate; endogenous in cells; host or cells: U2OS cell lysate
T18 sequence (Q96RR4 whole entry): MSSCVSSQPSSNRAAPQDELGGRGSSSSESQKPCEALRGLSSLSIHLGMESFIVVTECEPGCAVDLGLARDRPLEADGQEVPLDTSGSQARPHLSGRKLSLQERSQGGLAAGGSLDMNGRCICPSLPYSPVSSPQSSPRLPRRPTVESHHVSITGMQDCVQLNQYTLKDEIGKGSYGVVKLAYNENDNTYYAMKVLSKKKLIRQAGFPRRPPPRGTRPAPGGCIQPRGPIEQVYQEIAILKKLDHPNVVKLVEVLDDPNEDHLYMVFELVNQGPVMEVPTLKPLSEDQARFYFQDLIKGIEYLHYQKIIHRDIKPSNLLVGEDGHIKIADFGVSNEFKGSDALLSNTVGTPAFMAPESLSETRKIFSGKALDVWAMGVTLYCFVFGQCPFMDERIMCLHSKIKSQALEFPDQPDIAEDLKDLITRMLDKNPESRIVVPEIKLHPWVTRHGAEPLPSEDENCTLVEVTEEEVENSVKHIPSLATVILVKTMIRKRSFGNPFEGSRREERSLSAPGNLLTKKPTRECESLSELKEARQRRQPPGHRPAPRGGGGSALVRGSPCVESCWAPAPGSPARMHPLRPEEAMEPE
Outline: as §1

[19] = target: T19, proteins of U2OS cell lysate (Homo sapiens, UniProt P62826); conditions: captured protein RAN, Rank 147
T19 construct: Proteins enriched by c-ponatinib from U2OS cell lysate; endogenous in cells; host or cells: U2OS cell lysate
Outline: as §1

SMILES	Average LFQ PON_WT [1]	Average LFQ PON_WT [2]	Average LFQ PON_WT [3]	Average LFQ PON_WT [4]	Average LFQ PON_WT [5]	Average LFQ PON_WT [6]	Average LFQ PON_WT [7]	Average LFQ PON_WT [8]	Average LFQ PON_WT [9]	Average LFQ PON_WT [10]	Average LFQ PON_WT [11]	Average LFQ PON_WT [12]	Average LFQ PON_WT [13]	Average LFQ PON_WT [14]	Average LFQ PON_WT [15]	Average LFQ PON_WT [16]	Average LFQ PON_WT [17]	Average LFQ PON_WT [18]	Average LFQ intensity [19]
Cc1ccc(C(=O)Nc2ccc(CN3CCN(C)CC3)c(C(F)(F)F)c2)cc1C#Cc1cnc2cccnn12 [PON]	20.7589	23.4188	20.8973	20.8184	23.5505	20.0873	19.6049	24.6608	23.7078	21.0295	21.0725	23.9947	20.8944	24.4833	27.1188	24.813	24.6179	20.0519	–
Cc1ccc(C(=O)Nc2ccc(CN3CCN(CCCN)CC3)c(C(F)(F)F)c2)cc1C#Cc1cnc2cccnn12 [c-ponatinib, reference compound]	–	–	–	–	–	–	–	–	–	–	–	–	–	–	–	–	–	–	22.7198

— paper PMC6120666 (The EMBO Journal, 2018)
